Earlier results in patent US11523999B2, “Compositions comprising a fatty aged oil mixture and a free fatty acid, and methods and uses thereof” (Pronova Biopharma Norge AS, priority 2009, dated 2022).
Several values for one entry are separate records, joined by “and”; a condition that tells them apart may be missing. Equal entries are not always repeated.

Conditions: for HBL Value: Other surfactants, Table 7; for HLB Value: Span surfactants, Table 3

Compound | HBL Value | HLB Value
CCCCCCCCCCCCCCCC[N+](C)(C)C.[Br-] [Cetrimonium bromide] | 23.3 | 
CCCCCCCCCCCC(=O)OCCOCCO [Diethylene glycol monolaurate] | 6.1 | 
CCCCCCCCCCCCCCCCCC(=O)OCCOC(=O)CCCCCCCCCCCCCCCCC [Ethylene glycol distearate] | 1.5 | 
CCCCCCCCCCCCCCCCCC(=O)OCC(O)CO (stereo not drawn) [Glyceryl monostearate] | 3.3 and 3.8 | 
CCCCCCCCCCCCOS(=O)(=O)[O-].[Na+] [Sodium lauryl sulphate] | 40 | 
Propylene glycol monostearate | 3.4 | 
sorbitan monooleate [Span ® 80] |  | 4.3
sorbitan monopalmitate [Span ® 40] |  | 6.7
sorbitan monostearate [Span ® 60] |  | 4.7
